One assay relates to cocklebur. The assay is described as follows: Test C preemergence. The class given is in vivo, Xanthium strumarium. As to conditions: for Plant response rating (scale of 0 to 100), Cocklebur: Preemergence, 250 g ai/ha; for Cocklebur plant response rating / Plant response rating, Cocklebur: preemergence; for Plant response rating, Cocklebur: 62 g ai/ha, scale 0 to 100, 0 = no effect, 100 = complete control. An excerpt:
(§1) Seeds of plant species selected from blackgrass (Alopecurus myosuroides), ryegrass, Italian (Italian ryegrass, Lolium multiflorum), wheat (winter wheat, Triticum aestivum), galium (catchweed bedstraw, Galium aparine), corn (Zea mays), crabgrass, large (large crabgrass, Digitaria sanguinalis), foxtail, giant (giant foxtail, Setaria faberii), johnsongrass (Sorghum halepense), lambsquarters (Chenopodium album), morningglory (Ipomoea coccinea), nutsedge, yellow (yellow nutsedge, Cyperus esculentus), pigweed (redroot pigweed, Amaranthus retroflexus), ragweed (common ragweed, Ambrosia elation), soybean (Glycine max), barnyardgrass (Echinochloa crus-galli), oilseed rape (Brassica napus), waterhemp (common waterhemp, Amaranthus rudis), oat, wild (wild oat, Avena fatua), kochia (Kochia scoparia), Surinam grass (Brachiaria decumbens), foxtail, green (green foxtail, Setaria viridis), goosegrass (Eleusine indica), bromegrass, downy (downy bromegrass, Bromus tectorum), nightshade (eastern black nightshade, Solanum ptycanthum), cocklebur (common cocklebur, Xanthium strumarium), cupgrass, woolly (woolly cupgrass, Eriochloa villosa), bermudagrass (Cynodon dactylon), sunflower, (common oilseed sunflower, Helianthus annuus), Russian thistle (Salsola kali), and velvetleaf (Abutilon theophrasti) were planted into a blend of loam soil and sand and treated preemergence with test chemicals formulated in a non-phytotoxic solvent mixture which included a surfactant.
(§2) At the same time, plants selected from these crop and weed species and also chickweed (common chickweed, Stellaria media), canarygrass (littleseed canarygrass, Phalaris minor), and deadnettle (henbit deadnettle, Lamium amplexicaule), were planted in pots containing Redi-Earth® planting medium (Scotts Company, 14111 Scottslawn Road, Marysville, Ohio 43041) comprising spaghnum peat moss, vermiculite, wetting agent and starter nutrients and treated with postemergence applications of test chemicals formulated in the same manner. Plants ranged in height from 2 to 18 cm (1- to 4-leaf stage) for postemergence treatments. Treated plants and controls were maintained in a greenhouse for 13 to 15 days, after which time all species were compared to controls and visually evaluated. Plant response ratings, summarized in Table C, are based on a scale of 0 to 100 where 0 is no effect and 100 is complete control. A dash (-) response means no test result.

For another assay, the system named is Russian thistle. The assay is described as follows: Test D preemergence. The class given is in vivo, Salsola kali. Particulars: for Plant response rating, Russian Thistle: Preemergence, scale 0 to 100; for Plant response rating (scale 0 to 100), Russian Thistle: 16 g ai/ha, taken as preemergence. An excerpt:
Seeds of plant species selected from bluegrass (annual bluegrass, Poa annua), blackgrass (Alopecurus myosuroides), canarygrass (littleseed canarygrass, Phalaris minor), chickweed (common chickweed, Stellaria media), galium (catchweed bedstraw, Galium aparine), bromegrass, downy (downy bromegrass, Bromus tectorum), field poppy (Papaver rhoeas), field violet (Viola arvensis), foxtail, green (green foxtail, Setaria viridis), deadnettle (henbit deadnettle, Lamium amplexicaule), ryegrass, Italian (Italian ryegrass, Lolium multiflorum), kochia (Kochia scoparia), lambsquarters (Chenopodium album), oilseed rape (Brassica napus), pigweed (redroot pigweed, Amaranthus retroflexus), chamomile (scentless chamomile, Matricaria inodora), speedwell (bird's-eye speedwell, Veronica persica), barley, spring (spring barley, Hordeum vulgare), wheat, spring (spring wheat, Triticum aestivum), buckwheat, wild (wild buckwheat, Polygonum convolvulus), mustard, wild (wild mustard, Sinapis arvensis), oat, wild (wild oat, Avena fatua), radish, wild (wild radish, Raphanus raphanistrum), windgrass (Apera spica-venti), Russian thistle (Salsola kali), barley, winter (winter barley, Hordeum vulgare), and wheat, winter (winter wheat, Triticum aestivum) were planted into a silt loam soil and treated preemergence with test chemicals formulated in a non-phytotoxic solvent mixture which included a surfactant.
At the same time, these species were planted in pots containing Redi-Earth® planting medium (Scotts Company, 14111 Scottslawn Road, Marysville, Ohio 43041) comprising spaghnum peat moss, vermiculite, wetting agent and starter nutrients and treated with postemergence applications of the test chemicals formulated in the same manner. Plants ranged in height from 2 to 18 cm (1- to 4-leaf stage). Treated plants and controls were maintained in a controlled growth environment for 14 to 21 days after which time all species were compared to controls and visually evaluated. Plant response ratings, summarized in Table D, are based on a scale of 0 to 100 where 0 is no effect and 100 is complete control. A dash (-) response means no test result.

Another assay has as its system cupgrass, woolly. Briefly: Test C postemergence. Particulars: for Cupgrass, Woolly plant response rating: scale 0 to 100. In kind it is in vivo, Eriochloa villosa.
Excerpt: as §1, §2

Another assay has as its system giant foxtail. The assay is described as follows: Test F preemergence. In kind it is in vivo, Setaria faberii. From the text:
(§3) Seeds of plant species selected from corn (Zea mays), soybean (Glycine max), velvetleaf (Abutilon theophrasti), lambsquarters (Chenopodium album), wild poinsettia (Euphorbia heterophylla), pigweed, palmer (palmer pigweed, Amaranthus palmeri), common waterhemp (Amaranthus rudis), surinam grass (Brachiaria decumbens), large crabgrass (Digitaria sanguinalis), crabgrass, Brazil (Brazilian crabgrass, Digitaria horizontalis), fall panicum (Panicum dichotomiflorum), giant foxtail (Setaria faberii), green foxtail (Setaria viridis), goosegrass (Eleusine indica), johnsongrass (Sorghum halepense), common ragweed (Ambrosia elation), barnyardgrass (Echinochloa crus-galli), southern sandbur (Cenchrus echinatus), arrowleaf sida (Sida rhombifolia), Italian ryegrass (Lolium multiflorum), dayflower, VA (Virginia (VA) dayflower, Commelina virginica), field bindweed (Convolvulus arvensis), cocklebur (common cocklebur, Xanthium strumarium), morningglory (Ipomoea coccinea), nightshade (eastern black nightshade, Solanum ptycanthum), kochia (Kochia scoparia), yellow nutsedge (Cyperus esculentus), and hairy beggarticks (Bidens pilosa), were planted into a silt loam soil and treated preemergence with test chemicals formulated in a non-phytotoxic solvent mixture which included a surfactant.
(§4) At the same time, plants from these crop and weed species and also horseweed (Canada horseweed, Conyza canadensis), smartweed (ladysthumb smartweed, Polygonum persicaria), waterhemp_RES1, (ALS & Triazine resistant common waterhemp, Amaranthus rudis), and waterhemp_RES2, (ALS & HPPD resistant common waterhemp, Amaranthus rudis) were treated with postemergence applications of test chemicals formulated in the same manner. Plants ranged in height from 2 to 18 cm for postemergence treatments (1- to 4-leaf stage). Treated plants and controls were maintained in a greenhouse for 14 to 21 days, after which time all species were compared to controls and visually evaluated. Plant response ratings, summarized in Table F, are based on a scale of 0 to 100 where 0 is no effect and 100 is complete control. A dash (-) response means no test result.

Another assay relates to Italian ryegrass. The assay is described as follows: Test F preemergence. In kind it is in vivo, Lolium multiflorum.
Excerpt: as §3, §4

The subject of a further assay is lambsquarters. The assay is described as follows: Test F preemergence. In kind it is in vivo, Chenopodium album.
Excerpt: as §3, §4

[1] abbreviates: 31 g ai/ha, scale 0 to 100 (0 no effect, 100 complete control), 13 to 15 days.
Setting [2] is: 125 g ai/ha, scale 0 to 100, 0 is no effect, 100 is complete control.
Setting [3] is: postemergence, 250 g ai/ha, scale 0 to 100 (0 no effect, 100 complete control).
The mark [4] stands for this setting: postemergence, 125 g ai/ha, scale 0 to 100, 0 no effect, 100 complete control.
The mark [5] stands for this setting: postemergence, 62 g ai/ha, scale 0 to 100, 0 no effect, 100 complete control.
[6] abbreviates: Preemergence, 31 g ai/ha, scale 0 to 100.
[7] abbreviates: Preemergence, 62 g ai/ha, scale 0 to 100.
Setting [8] is: Preemergence, 125 g ai/ha, scale 0 to 100.
Where [9] appears, read: preemergence, 8 g ai/ha, scale 0 to 100, 100 is complete control.
Where [10] appears, read: preemergence, 16 g ai/ha, scale 0 to 100, 100 is complete control.
The mark [11] stands for this setting: Preemergence, 250 g ai/ha, scale 0 to 100.

Here are results for nine molecules from patent publication US20150105252A1, “SUBSTITUTED PYRAZOLES AS HERBICIDES” (E I DU PONT DE NEMOURS AND COMPANY, priority 2013, published 2015).

For `Cc1cc(C(=O)NCC(F)(F)F)nn1Cc1ccnc(C(F)(F)F)c1` [Compound 74], in the assay with cocklebur, the “Plant response rating (scale of 0 to 100), Cocklebur” value is recorded as 100. Besides, the “Cocklebur plant response rating” value with cocklebur (setting [1]) and with cocklebur (setting [2]) was 100 throughout. Also, the “Plant response rating, Cocklebur” value in the assay with cocklebur (13 to 15 days) is 100. Moreover, the results for the “Plant response rating, Russian Thistle” value in the assay on Russian thistle (31 g ai/ha), with Russian thistle (62 g ai/ha) and in the assay with Russian thistle (125 g ai/ha) were 70, 85 and 95, respectively. Moreover, the “Cupgrass, Woolly plant response rating” value in the assay with cupgrass, woolly (Postemergence, 31 g ai/ha) is on record as 5; in the assay with cupgrass, woolly (postemergence, 62 g ai/ha) it was 10. Moreover, the “Plant response rating, Cupgrass, Woolly” value in the assay with cupgrass, woolly (setting [3]) is 20; in the assay on cupgrass, woolly (setting [4]), 15.

Turning to `CCCNC(=O)c1cc(CC)n(Cc2cccc(OC(F)(F)F)c2)n1` [Compound 27], the “Cupgrass, Woolly plant response rating” value with cupgrass, woolly (Postemergence, 31 g ai/ha) worked out at 0. The “Plant response rating, Cupgrass, Woolly” value in the assay on cupgrass, woolly (setting [3]) is 20; in the assay on cupgrass, woolly (setting [5]) it was 5; in the assay with cupgrass, woolly (setting [4]), 10.

For `CCONC(=O)c1cc(CC)n(Cc2cccc(OC(F)(F)F)c2)n1` [Compound 72], the “Plant response rating (scale of 0 to 100), Cocklebur” value in the assay on cocklebur amounted to 100. In addition, the “Cocklebur plant response rating” value was 0 with cocklebur (setting [1]) and 10 with cocklebur (setting [2]). Besides, the “Plant response rating, Cocklebur” value with cocklebur (13 to 15 days) is listed as 0. Also, the “Cupgrass, Woolly plant response rating” value in the assay with cupgrass, woolly (Postemergence, 31 g ai/ha) is 5; in the assay on cupgrass, woolly (postemergence, 62 g ai/ha), 10. Also, the “Plant response rating, Cupgrass, Woolly” value came to 15 in the assay on cupgrass, woolly (setting [3]) and 10 in the assay with cupgrass, woolly (setting [4]).

As to `CCc1cc(C(=O)NC2CC2)nn1Cc1ccnc(C(F)(F)F)c1` [Compound 76], the “Plant response rating (scale 0 to 100), Russian Thistle” value in the assay with Russian thistle was 50. The “Plant response rating, Russian Thistle” value in the assay on Russian thistle (31 g ai/ha) amounted to 65; with Russian thistle (62 g ai/ha), 70; in the assay on Russian thistle (125 g ai/ha), 80; in the assay on Russian thistle (250 g ai/ha) it was 95.

Turning to `CCc1cc(C(=O)NOC(C)C)nn1Cc1cccc(OC(F)(F)F)c1` [Compound 70], in the assay on cocklebur, the “Plant response rating (scale of 0 to 100), Cocklebur” value is listed as 100. For the same molecule, the “Cocklebur plant response rating” value is on record as 0 in the assay on cocklebur (setting [1]) and 45 in the assay with cocklebur (setting [2]). Moreover, the “Plant response rating, Cocklebur” value in the assay on cocklebur (13 to 15 days) turned out to be 0. The “Plant response rating (scale 0 to 100), Russian Thistle” value in the assay on Russian thistle is 0. In addition, the “Plant response rating, Russian Thistle” value in the assay with Russian thistle (31 g ai/ha) was found to be 0; in the assay on Russian thistle (62 g ai/ha) it was 90; in the assay on Russian thistle (125 g ai/ha), 90; in the assay with Russian thistle (250 g ai/ha), 100. The “Cupgrass, Woolly plant response rating” value with cupgrass, woolly (Postemergence, 31 g ai/ha) came to 0. In addition, the “Plant response rating, Cupgrass, Woolly” value with cupgrass, woolly (setting [3]) is recorded as 20; with cupgrass, woolly (setting [5]), 0; with cupgrass, woolly (setting [4]), 15.

As to `CCc1cc(C(=O)NCC(F)(F)F)nn1Cc1cccc(OC(F)(F)F)c1` [Compound 20], the “Cupgrass, Woolly plant response rating” value in the assay with cupgrass, woolly (Postemergence, 31 g ai/ha) is recorded as 5. The “Plant response rating, Cupgrass, Woolly” value amounted to 15 in the assay on cupgrass, woolly (setting [3]); 10 in the assay on cupgrass, woolly (setting [5]); 15 in the assay on cupgrass, woolly (setting [4]).

For `CCc1cc(-c2ccc(C(F)(F)F)cc2)nn1Cc1ccnc(C(F)(F)F)c1` [Compound 110], the “Plant response rating, Giant Foxtail” value in the assay on giant foxtail (setting [6]) came out at 70; with giant foxtail (setting [7]) it was 95; in the assay with giant foxtail (setting [8]), 98; in the assay on giant foxtail (setting [9]), 25; in the assay on giant foxtail (setting [10]) it was 40. Further, the “Plant response rating, Italian Ryegrass” value with Italian ryegrass (setting [6]) came to 20; in the assay with Italian ryegrass (setting [7]), 20; with Italian ryegrass (setting [8]), 60; in the assay with Italian ryegrass (setting [9]), 0; in the assay on Italian ryegrass (setting [10]), 0. Moreover, the “Plant response rating, Lambsquarters” value is reported as 65 in the assay on lambsquarters (setting [6]); 50 in the assay on lambsquarters (setting [7]); 100 in the assay on lambsquarters (setting [8]); 0 in the assay with lambsquarters (setting [9]); 0 in the assay on lambsquarters (setting [10]).

As for `CCc1cc(C(=O)NCC(F)(F)F)nn1Cc1ccnc(Br)c1` [Compound 224], the entries for the “Plant response rating, Giant Foxtail” value with giant foxtail (setting [7]), with giant foxtail (setting [8]) and with giant foxtail (setting [11]) were 40, 75 and 98, respectively. For the same molecule, the “Plant response rating, Italian Ryegrass” value is on record as 20 in the assay on Italian ryegrass (setting [7]), 0 with Italian ryegrass (setting [8]) and 60 in the assay on Italian ryegrass (setting [11]). In addition, the results for the “Plant response rating, Lambsquarters” value in the assay with lambsquarters (setting [7]), in the assay with lambsquarters (setting [8]) and in the assay on lambsquarters (setting [11]) were 98, 98 and 100, respectively.

Take `CCCc1cc(C(=O)NC(C)C)nn1Cc1cc(C(F)(F)F)nn1C` [Compound 201]: the “Plant response rating, Giant Foxtail” value in the assay on giant foxtail (setting [7]) stood at 75; in the assay with giant foxtail (setting [8]), 75; in the assay on giant foxtail (setting [11]) it was 100; in the assay with giant foxtail (setting [10]), 0. The “Plant response rating, Italian Ryegrass” value in the assay on Italian ryegrass (setting [7]) came to 30; with Italian ryegrass (setting [8]) it was 75; in the assay with Italian ryegrass (setting [11]) it was 75; with Italian ryegrass (setting [10]) it was 0. Besides, the “Plant response rating, Lambsquarters” value is 70 in the assay on lambsquarters (setting [7]), 100 with lambsquarters (setting [8]), 100 with lambsquarters (setting [11]) and 0 with lambsquarters (setting [10]).
